The assay deals with miR-34b, miR-132, miR-137, miR-193a, and miR-203 genes in oral squamous-cell carcinoma cell lines. In words: Real-time RT-PCR of candidate miRNA gene expression after treatment with demethylating reagent. The format is cell-based. The source says: The miRNA expression levels were compared in terms of relative value based on the RNU6B expression level as an internal control. Stars represent 21 types of miRNA genes located on or around the CpG islands. […] A bar graph representing each cell line represents a comparison of expression levels in the RT7 cells and in each cell line. […] A bar graph representing each cell line indicates a comparison of expression levels in untreated cells and in treated cells. […] Asterisks (*) represent a frequency of oral squamous-cell carcinoma cell lines in which recovery of candidate miRNA expression (expression levels of more than 1.5-fold) was observed by comparing untreated cells with cells that have been treated with 10 μM 5-aza-dCyd.
In order to inspect whether or not expression of these 5 types of miRNA genes was suppressed by DNA methylation, oral squamous-cell carcinoma cell lines in which these 5 types of miRNA genes had not been expressed were treated with 1 μM and 10 μM demethylating reagents (5-aza-dCyd) for 5 days. RNA was extracted from these cell lines and expression of candidate miRNA genes was inspected via real-time RT-PCR (FIG. 1D).
On the technique in general: Real-time PCR tracks product formation cycle by cycle.

Structures are written as SMILES.

Consider `Nc1ncn([C@H]2C[C@H](O)[C@@H](CO)O2)c(=O)n1` [5-aza-dCyd, 5-aza-2′-deoxycytidine], for which the “recovery of candidate miRNA gene expression” value (1 μM and 10 μM for 5 days, OSCC cell lines in which the 5 miRNA genes had not been expressed) is given as “expression of these genes was found to be recovered”. Besides, for the setting “oral squamous-cell carcinoma cells cultured in the presence of the demethylating reagent”, the “demethylation of CpG islands near the miRNA genes” value is given as “possible to demethylate such CpG islands”.

Source of the values: US20110076768A1, “METHOD FOR DETECTING CARCINOMA AND AGENT FOR SUPPRESSING CARCINOMA” (priority 2008, published 2011).
